Assay: Phase II study in metastatic TNBC: toxicity / adverse events
Assay type: in vivo, human
Protocol: Experimental design: In this single-arm, two-stage phase 2 study, patients with metastatic TNBC with measurable disease by RECIST and up to 3 lines of prior chemotherapy for metastatic disease received cabozantinib 60 mg daily on a 21-day cycle. Patients were restaged 6 weeks following treatment initiation and every 9 weeks thereafter. The primary endpoint was objective response rate (ORR). Predefined secondary endpoints included progression free survival (PFS) and toxicity. Here, we examined cellular biomarkers using flow cytometry in serial blood samples collected at days 0 (baseline/pre-treatment), 8, 22, 43, and 64 of cabozantinib treatment. Mixed effect models were used to evaluate the changes of biomarker levels over time from baseline to day 64. Wilcoxon signed rank test were used to evaluate whether the change of biomarker levels from baseline to day 8 were different by clinical benefit. Adjusted p-values controlling false discovery rate were used to adjust for multiple comparisons.
Study Design and Treatment: As indicated, this was a single-arm, two-stage phase II study assessing the efficacy of cabozantinib monotherapy in patients with mTNBC. Treatment consisted of oral dosing of cabozantinib at 60 mg daily over a 21-day cycle. Patients underwent radiographic restaging at 6 weeks and every 9 weeks thereafter. Patients with complete or partial RECIST responses continued to receive study treatment, whereas those with progressive disease were taken off study. Dose reductions for toxicity occurred if patients experienced grade 3 or 4 neutropenia or thrombocytopenia, or nonhematologic adverse events. From the starting dose of 60 mg daily, doses were reduced as needed to 40 and 20 mg daily. For the purposes of determining the effect of cabozantinib treatment on pain and analgesic medication use, pain was assessed by a participant-reported questionnaire, and daily analgesic medication usage was recorded. These were completed at baseline and during week 3, 6, and every 6 weeks thereafter until the date of the participant's last follow-up visit.
The primary endpoint was the activity of cabozantinib, as defined by objective response rate (ORR) in patients with mTNBC. Predefined secondary endpoints included progression-free survival (PFS), toxicity, and pain. Correlative studies included analysis of MET and phospho-MET expression in archival tumor tissue, and molecular and cellular biomarkers of cabozantinib. Cellular biomarkers were examined using flow cytometry in serial blood samples collected at days 0 (baseline/pre-treatment), 8, 22, 43, and 64 of cabozantinib treatment. Mixed effect models were used to evaluate the changes of biomarker levels over time from baseline to day 64. Wilcoxon signed rank test were used to evaluate whether the change of biomarker levels from baseline to day 8 were different by clinical benefit. Adjusted p-values controlling false discovery rate were used to adjust for multiple comparisons.

Structure (SMILES): COc1cc2nccc(Oc3ccc(NC(=O)C4(C(=O)Nc5ccc(F)cc5)CC4)cc3)c2cc1OC [cabozantinib]
- number of grade 3 adverse events (35 patients): 15
- Anorexia (Maximum grade Mild): 10
- Bone pain (Maximum grade Mild): 0
- Diarrhea (Maximum grade Mild): 8
- Dysgeusia (Maximum grade Mild): 5
- Elavated lipase (Maximum grade Mild): 0
- Elevated alanine aminotransferase (Maximum grade Mild): 6
- Elevated aspartate aminotransferase (Maximum grade Mild): 7
- Fatigue (Maximum grade Mild): 18
- Hypertension (Maximum grade Mild): 6
- Hypophosphatemia (Maximum grade Mild): 0
- Infection (Maximum grade Mild): 0
- Nausea (Maximum grade Mild): 10
- Oral mucositis (Maximum grade Mild): 11
- PPE (Maximum grade Mild): 3
- Prolonged activated partial thromboplastin time (Maximum grade Mild): 0
- Thromboembolic event (Maximum grade Mild): 0
- Wound dehiscence (Maximum grade Mild): 0
- Anorexia (Maximum grade Moderate): 2
- Bone pain (Maximum grade Moderate): 0
- Diarrhea (Maximum grade Moderate): 6
- Dysgeusia (Maximum grade Moderate): 2
- Elavated lipase (Maximum grade Moderate): 0
- Elevated alanine aminotransferase (Maximum grade Moderate): 0
- Elevated aspartate aminotransferase (Maximum grade Moderate): 3
- Fatigue (Maximum grade Moderate): 9
- Hypertension (Maximum grade Moderate): 4
- Hypophosphatemia (Maximum grade Moderate): 0
- Infection (Maximum grade Moderate): 0
- Nausea (Maximum grade Moderate): 0
- Oral mucositis (Maximum grade Moderate): 2
- PPE (Maximum grade Moderate): 9
- Prolonged activated partial thromboplastin time (Maximum grade Moderate): 0
- Thromboembolic event (Maximum grade Moderate): 0
- Wound dehiscence (Maximum grade Moderate): 0
- Anorexia (Maximum grade Severe): 0
- Bone pain (Maximum grade Severe): 1
- Diarrhea (Maximum grade Severe): 0
- Dysgeusia (Maximum grade Severe): 0
- Elavated lipase (Maximum grade Severe): 3
- Elevated alanine aminotransferase (Maximum grade Severe): 1
- Elevated aspartate aminotransferase (Maximum grade Severe): 2
- Fatigue (Maximum grade Severe): 0
- Hypertension (Maximum grade Severe): 2
- Hypophosphatemia (Maximum grade Severe): 1
- Infection (Maximum grade Severe): 1
- Nausea (Maximum grade Severe): 0
- Oral mucositis (Maximum grade Severe): 0
- PPE (Maximum grade Severe): 1
- Prolonged activated partial thromboplastin time (Maximum grade Severe): 1
- Thromboembolic event (Maximum grade Severe): 1
- Wound dehiscence (Maximum grade Severe): 1
- Anorexia (all grades): 12 (34) Total (% of 35)
- Bone pain (all grades): 1 (3) Total (% of 35)
- Diarrhea (all grades): 14 (40) Total (% of 35)
- Dysgeusia (all grades): 7 (20) Total (% of 35)
- Elavated lipase (all grades): 3 (9) Total (% of 35)
- Elevated alanine aminotransferase (all grades): 7 (20) Total (% of 35)
- Elevated aspartate aminotransferase (all grades): 12 (34) Total (% of 35)
- Fatigue (all grades): 27 (77) Total (% of 35)
- Hypertension (all grades): 12 (34) Total (% of 35)
- Hypophosphatemia (all grades): 1 (3) Total (% of 35)
- Infection (all grades): 1 (3) Total (% of 35)
- Nausea (all grades): 10 (29) Total (% of 35)
- Oral mucositis (all grades): 13 (37) Total (% of 35)
- PPE (all grades): 13 (37) Total (% of 35)
- Prolonged activated partial thromboplastin time (all grades): 1 (3) Total (% of 35)
- Thromboembolic event (all grades): 1 (3) Total (% of 35)
- Wound dehiscence (all grades): 1 (3) Total (% of 35)
- Diarrhea (all grades, possibly related): 40%
- Fatigue (all grades, possibly related): 77%
- Oral mucositis (all grades, possibly related): 37%
- palmar-plantar erythrodysesthesia (PPE) (all grades, possibly related): 37%
- patients requiring dose reduction (from 60 mg daily): 34%
- dose reduction due to PPE (in vivo): 4 patients
- dose reduction due to other toxicities (in vivo): 8 patients
- grade 3 elevated aspartate aminotransferase (in vivo): 2 n
- grade 3 elevated lipase (in vivo): 3 n
- grade 3 hypertension (in vivo): 2 n
- grade 4 toxicities (in vivo): no grade 4 toxicities
- patients off treatment due to toxicity (in vivo): 9%
- patients who omitted at least one dose due to toxicity (in vivo): 26 patients
- tolerability (in vivo): well tolerated
